Results from patent publication US12435061B2 (priority 2020, dated 2025).
pIC50: −log10 of the molar value. Where two headings read alike, the source gives them in different places.

Molecular target: hTRPV3 (Homo sapiens (Human), UniProt Q8NET8)
Experiment: Whole-cell patch clamp, hTRPV3 Phase 1 / Phase 2 currents
Format: cell-based
Conditions: for pIC50: inward, whole-cell patch clamp
Procedure, shortened: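 Currents are activated by 20 μM 2-APB or by perfusate at 28 °C or warmer, in Ringer's solution, and quantified at ±80 mV.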

[1] = Phase 1 current, read-out: hTRPV3 Patch P1 Inwd
[2] = Phase 1 current, read-out: hTRPV3 (nM) (Phase 1)
[3] = Phase 2 current, read-out: hTRPV3 Patch P2 Inwd
[4] = Phase 2 current, read-out: hTRPV3 (nM) (Phase 2)

hTRPV3, sequence (Q8NET8 whole entry): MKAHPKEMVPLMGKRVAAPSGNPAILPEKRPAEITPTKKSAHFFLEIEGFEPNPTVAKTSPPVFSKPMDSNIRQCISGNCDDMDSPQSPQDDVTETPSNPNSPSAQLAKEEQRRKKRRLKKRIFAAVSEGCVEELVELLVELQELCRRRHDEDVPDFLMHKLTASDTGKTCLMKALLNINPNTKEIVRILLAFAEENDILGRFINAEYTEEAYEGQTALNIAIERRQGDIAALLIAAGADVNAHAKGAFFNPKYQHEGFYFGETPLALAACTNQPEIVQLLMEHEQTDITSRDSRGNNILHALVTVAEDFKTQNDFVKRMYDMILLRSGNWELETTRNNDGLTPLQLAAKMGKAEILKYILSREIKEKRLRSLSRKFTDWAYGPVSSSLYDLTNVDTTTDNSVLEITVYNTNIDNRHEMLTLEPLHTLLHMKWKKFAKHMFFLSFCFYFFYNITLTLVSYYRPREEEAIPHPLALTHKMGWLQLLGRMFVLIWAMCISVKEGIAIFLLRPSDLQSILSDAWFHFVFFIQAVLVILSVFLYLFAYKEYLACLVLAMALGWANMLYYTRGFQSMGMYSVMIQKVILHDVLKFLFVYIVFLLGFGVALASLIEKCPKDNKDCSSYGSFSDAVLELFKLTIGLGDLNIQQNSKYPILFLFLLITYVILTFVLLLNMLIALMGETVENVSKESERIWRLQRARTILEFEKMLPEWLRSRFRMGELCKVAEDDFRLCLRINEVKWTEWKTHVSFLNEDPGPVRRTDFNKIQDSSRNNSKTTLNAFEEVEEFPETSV

Row | Compound | pIC50 [1] | IC50 [2] [nM] | pIC50 [3] | IC50 [4] [nM] | hTRPV3 (nM) (Phase 1) (Phase 1 current)
1 | O=C(c1cccc(Cl)c1)c1ccc(CCO)c(N2CC[C@H](Oc3ncccc3Cl)C2)c1 [Compound 1-314, (S)-(3-chlorophenyl)(3-(3-(3-chloropyridin-2-yloxy)pyrrolidin-1-yl)-4-(2-hydroxyethyl)phenyl)methanone] | 6.00 to 7.00 | 229 | 6.00 to 7.00 | 307 | –
2 | O=C(c1ccc(F)cc1)c1ccc(N2CC[C@H](Oc3ncccc3Cl)C2)c(CCO)c1 [Compound 1-315, (S)-(4-(3-(3-chloropyridin-2-yloxy)pyrrolidin-1-yl)-3-(2-hydroxyethyl)phenyl)(4-fluorophenyl)methanone] | < 6.00 | 1260 | – | – | –
3 | O=C(Nc1ccc(F)cc1)c1ccc(N2CC[C@H](Oc3ncccc3Cl)C2)c(CCO)c1 [Compound 1-319, (S)-4-(3-(3-chloropyridin-2-yloxy)pyrrolidin-1-yl)-N-(4-fluorophenyl)-3-(2-hydroxyethyl)benzamide] | < 6.00 | 3440 | – | – | –
4 | O=C(Nc1ccccc1)c1ccc(N2CC[C@H](Oc3ncccc3Cl)C2)c(CCO)c1 [Compound 1-320, (S)-4-(3-(3-chloropyridin-2-yloxy)pyrrolidin-1-yl)-3-(2-hydroxyethyl)-N-phenylbenzamide] | < 6.00 | ~4660 | – | – | –
5 | OCc1nc(-c2ccccc2)ccc1N1C[C@@H](O)[C@H](Oc2ccc(C(F)(F)F)cn2)C1 [Compound 1-323] | < 6.00 | 3610 | – | – | –
6 | CCc1ccccc1Oc1ccc(N2CC[C@H](Oc3ncccc3Cl)C2)c(C(N)=O)c1 [Compound 1-324] | – | – | – | – | Incomplete Block (Phase 1)
7 | CC(C)c1ccc(Oc2ccc(N3CC[C@H](Oc4ccccn4)C3)c(CO)c2)cc1 [Compound 1-325] | – | – | – | – | Incomplete Block (Phase 1)
8 | CC(O)c1cc(F)ccc1Oc1ccc(N2CC[C@H](Oc3ccccn3)C2)c(CO)c1 (some centres unmarked) [Compound 1-326] | < 6.00 | 1470 | 6.00 to 7.00 | 575 | –
9 | O=C(c1cccc(Cl)c1)c1ccc(N2CC[C@H](Oc3ncccc3Cl)C2)c(CCO)c1 [Compound 1-328, (S)-(3-chlorophenyl)(4-(3-(3-chloropyridin-2-yloxy)pyrrolidin-1-yl)-3-(2-hydroxyethyl)phenyl)methanone] | 6.00 to 7.00 | 615 | – | – | –
10 | OCCc1cc(C(O)c2cccc(Cl)c2)ccc1N1CC[C@H](Oc2ncccc2Cl)C1 (stereo partly drawn) [Compound 1-329, 2-(5-((3-chlorophenyl)(hydroxy)methyl)-2-((S)-3-(3-chloropyridin-2-yloxy)pyrrolidin-1-yl)phenyl)ethanol] | < 6.00 | 3100 | – | – | –
11 | CC(C)c1ccccc1Oc1ccc(N2CC[C@H](Oc3ncccc3F)C2)c(CCO)c1 [Compound 1-331, (S)-2-(2-(3-(3-fluoropyridin-2-yloxy)pyrrolidin-1-yl)-5-(2-isopropylphenoxy)phenyl)ethanol] | 7.00 to 8.00 | 28 | – | – | –
12 | O=C(c1ccc(N2CC[C@H](Oc3ccccn3)C2)c(CO)c1)c1ccccc1Cl [Compound 1-332, (S)-(2-chlorophenyl)(3-(hydroxymethyl)-4-(3-(pyridin-2-yloxy)pyrrolidin-1-yl)phenyl) methanone] | < 6.00 | > 3200 | < 6.00 | > 3200 | –
13 | OCc1cc(Oc2ccccc2F)ccc1N1CC[C@H](Oc2ccccn2)C1 [Compound 1-333] | 6.00 to 7.00 | 207 | 6.00 to 7.00 | 111 | –
14 | OCCc1cc(Oc2ccccc2F)ccc1N1CC[C@H](Oc2ccccn2)C1 [Compound 1-334] | 6.00 to 7.00 | 289 | 6.00 to 7.00 | ~243 | –
15 | CCc1ccccc1Oc1ccc(N2CC[C@H](Oc3ccccn3)C2)c(CCO)c1 [Compound 1-335] | 7.00 to 8.00 | 66.3 | – | – | –
16 | COc1ccccc1Oc1ccc(N2CC[C@H](Oc3ccc(F)cn3)C2)c(CO)c1 [Compound 1-336, (S)-(2-(3-(5-fluoropyridin-2-yloxy)pyrrolidin-1-yl)-5-(2-methoxyphenoxy)phenyl)methanol] | 6.00 to 7.00 | 329 | 6.00 to 7.00 | 384 | –
17 | CN(C(=O)c1ccc(N2CC[C@H](Oc3ncccc3Cl)C2)c(CCO)c1)c1ccccc1 [Compound 1-337, (S)-4-(3-(3-chloropyridin-2-yloxy)pyrrolidin-1-yl)-3-(2-hydroxyethyl)-N-methyl-N-phenylbenzamide] | < 6.00 | > 3200 | – | – | –
18 | OCc1cc(C(O)c2ccccc2Cl)ccc1N1CC[C@H](Oc2ccccn2)C1 (stereo partly drawn) [Compound 1-338, (2-chlorophenyl)(3-(hydroxymethyl)-4-((S)-3-(pyridin-2-yloxy)pyrrolidin-1-yl)phenyl)methanol] | 6.00 to 7.00 | 196 | – | – | –
19 | COc1ccccc1Oc1ccc(N2CC[C@H](Oc3ccccn3)C2)c(CO)c1 [Compound 1-339, (S)-(5-(2-methoxyphenoxy)-2-(3-(pyridin-2-yloxy)pyrrolidin-1-yl)phenyl)methanol] | 6.00 to 7.00 | 521 | – | – | –

Row | Compound | pIC50 [1] | IC50 [2] [nM] | pIC50 [3] | IC50 [4] [nM] | hTRPV3 (nM) (Phase 1) (Phase 1 current)
20 | COCc1ccccc1Oc1ccc(N2CC[C@H](Oc3ccc(F)cn3)C2)c(CCO)c1 [Compound 1-341, (S)-2-(2-(3-(5-fluoropyridin-2-yloxy)pyrrolidin-1-yl)-5-(2-(methoxymethyl)phenoxy)phenyl)ethanol] | 6.00 to 7.00 | 877 | 6.00 to 7.00 | 748 | –
21 | CCc1ccccc1S(=O)(=O)c1ccc(N2CC[C@H](Oc3ncccc3Cl)C2)c(CCO)c1 [Compound 1-342] | – | – | < 6.00 | – | –
22 | CC(=O)c1cc(F)ccc1Oc1ccc(N2CC[C@H](Oc3ccccn3)C2)c(CO)c1 [Compound 1-343] | 6.00 to 7.00 | 199 | – | – | –
23 | OCc1cc(Oc2ccc(Cl)c(Cl)c2)ccc1N1CC[C@H](Oc2ccccn2)C1 [Compound 1-344] | 7.00 to 8.00 | 65.3 | – | – | –
24 | COc1ccccc1Oc1ccc(N2CC[C@H](Oc3ccc(C)cn3)C2)c(CO)c1 [Compound 1-345, (S)-(5-(2-methoxyphenoxy)-2-(3-(5-methylpyridin-2-yloxy)pyrrolidin-1-yl)phenyl)methanol] | < 6.00 | ~2450 | – | – | –
25 | COc1ccccc1Oc1ccc(N2CC[C@H](Oc3ncccc3F)C2)c(CO)c1 [Compound 1-346, (S)-(2-(3-(3-fluoropyridin-2-yloxy)pyrrolidin-1-yl)-5-(2-methoxyphenoxy)phenyl)methanol] | 6.00 to 7.00 | 612 | – | – | –
26 | COC(C)c1ccccc1Oc1ccc(N2CC[C@H](Oc3ccc(F)cn3)C2)c(CCO)c1 (stereo partly drawn) [Compound 1-347, 2-(2-((S)-3-(5-fluoropyridin-2-yloxy)pyrrolidin-1-yl)-5-(2-(1-methoxyethyl)phenoxy)phenyl)ethanol] | 6.00 to 7.00 | 220 | 6.00 to 7.00 | 198 | –
27 | COCc1ccccc1Oc1ccc(N2CC[C@H](Oc3ccccn3)C2)c(CCO)c1 [Compound 1-348, (S)-2-(5-(2-(methoxymethyl)phenoxy)-2-(3-(pyridin-2-yloxy)pyrrolidin-1-yl)phenyl) ethanol] | < 6.00 | > 3200 | – | – | –
28 | COCc1ccccc1Oc1ccc(N2CC[C@H](Oc3ccc(C)cn3)C2)c(CCO)c1 [Compound 1-349, (S)-2-(5-(2-(methoxymethyl)phenoxy)-2-(3-(5-methylpyridin-2-yloxy)pyrrolidin-1-yl)phenyl)ethanol] | 6.00 to 7.00 | 908 | – | – | –
29 | COCc1ccccc1Oc1ccc(N2CC[C@H](Oc3ncccc3C)C2)c(CCO)c1 [Compound 1-350, (S)-2-(5-(2-(methoxymethyl)phenoxy)-2-(3-(3-methylpyridin-2-yloxy)pyrrolidin-1-yl)phenyl)ethanol] | 6.00 to 7.00 | 311 | – | – | –
30 | COCc1ccccc1Oc1ccc(N2CC[C@H](Oc3ncccc3F)C2)c(CCO)c1 [Compound 1-351, (S)-2-(2-(3-(3-fluoropyridin-2-yloxy)pyrrolidin-1-yl)-5-(2-(methoxymethyl)phenoxy)phenyl)ethanol] | 6.00 to 7.00 | 461 | – | – | –
31 | CCc1ccccc1Oc1ccc(N2CC[C@H](Oc3ccc(C#N)cn3)C2)c(CO)c1 [Compound 1-352] | 6.00 to 7.00 | 974 | – | – | –
32 | CC(C)c1ccccc1Oc1ccc(N2CC[C@H](Oc3ccc(C#N)cn3)C2)c(CO)c1 [Compound 1-353] | 7.00 to 8.00 | 26.8 | – | – | –
33 | OCCc1ccc(C(O)c2ccccc2Cl)cc1N1CC[C@H](Oc2ncccc2Cl)C1 (stereo partly drawn) [Compound 1-354, 2-(4-((2-chlorophenyl)(hydroxy)methyl)-2-((S)-3-(3-chloropyridin-2-yloxy)pyrrolidin-1-yl)phenyl)ethanol] | < 6.00 | 1010 | – | – | –
34 | COC(C)c1ccccc1Oc1ccc(N2CC[C@H](Oc3ccc(C)cn3)C2)c(CCO)c1 (stereo partly drawn) [Compound 1-355, 2-(5-(2-(1-methoxyethyl)phenoxy)-2-((S)-3-(5-methylpyridin-2-yloxy)pyrrolidin-1-yl)phenyl)ethanol] | 6.00 to 7.00 | 173 | – | – | –
35 | N#Cc1cccc(C(O)c2ccc(N3CC[C@H](Oc4ncccc4Cl)C3)c(CCO)c2)c1 (stereo partly drawn) [Compound 1-356, 3-((4-((S)-3-(3-chloropyridin-2-yloxy)pyrrolidin-1-yl)-3-(2-hydroxyethyl)phenyl)(hydroxy)methyl)benzonitrile] | < 6.00 | > 3200 | – | – | –
36 | COC(C)c1ccccc1Oc1ccc(N2CC[C@H](Oc3ccccn3)C2)c(CCO)c1 (stereo partly drawn) [Compound 1-357, 2-(5-(2-(1-methoxyethyl)phenoxy)-2-((S)-3(pyridin-2-yloxy)pyrrolidin-1-yl)phenyl)ethanol] | 6.00 to 7.00 | 312 | – | – | –
37 | CCc1c(Oc2ccc(F)c(CO)c2)ncnc1N1CC[C@H](Oc2ncccc2Cl)C1 [Compound 1-359, (S)-(5-(6-(3-(3-chloropyridin-2-yloxy)pyrrolidin-1-yl)-5-ethylpyrimidin-4-yloxy)-2-fluorophenyl)methanol] | – | – | – | – | Agonist (Phase 1)
